In ChEMBL document CHEMBL3046598, “In vitro antimicrobial and molecular docking of dichloro substituted benzoxazole derivatives” (2012) one finds MIC data, which are given here for seven compounds.

Values after ≈ are worked out from the molar mass of the structure shown.

Assay type in all cases: functional
One test relates to Staphylococcus aureus. Put plainly: Antibacterial activity against Staphylococcus aureus NCIM 5022 after 24 hr by agar well diffusion method. The following applies: NCIM 5022, 24 h.
Another test concerns Proteus vulgaris. Put plainly: Antibacterial activity against Proteus vulgaris NCIM 2857 after 24 hr by agar well diffusion method. Conditions: NCIM 2857, 24 h. In general terms: A growth-free zone around the sample is the usual read-out of agar diffusion tests.
For the next test, the system named is Escherichia coli. The test is described as follows: Antibacterial activity against Escherichia coli NCIM 5051 after 24 hr by agar well diffusion method. The following applies: NCIM 5051, 24 h.
Another test concerns Bacillus subtilis. The test is described as follows: Antibacterial activity against Bacillus subtilis NCIM 2920 after 24 hr by agar well diffusion method. Conditions: NCIM 2920, 24 h.
The test system of a further test is Salmonella typhi. The test is described as follows: Antibacterial activity against Salmonella enterica subsp. enterica serovar Typhi ATCC 19430 after 24 hr by agar well diffusion method. The following applies: ATCC 19430, 24 h.
The next test has as its system Pseudomonas aeruginosa. The test is described as follows: Antibacterial activity against Pseudomonas aeruginosa NCIM 2945 after 24 hr by agar well diffusion method. The following applies: NCIM 2945, 24 h.

For orientation: MIC means the smallest concentration in the dilution series that meets the test's criterion for growth inhibition. A low value points to greater potency. Take `NNc1nc2cc(Cl)cc(Cl)c2o1`: the minimum inhibitory concentration (MIC) stood at 6.25 µg/mL (≈ 28.7 µM) with Staphylococcus aureus, 3.12 µg/mL (≈ 14.3 µM) against Proteus vulgaris, 50 µg/mL (≈ 229 µM) in the test on Escherichia coli and 6.25 µg/mL (≈ 28.7 µM) against Bacillus subtilis.

Turning to `CCOC(=O)CSc1nnc2oc3c(Cl)cc(Cl)cc3n12`, the MIC was found to be 6.25 µg/mL (≈ 18.1 µM) against Staphylococcus aureus; 50 µg/mL (≈ 144 µM) against Salmonella typhi; 3.12 µg/mL (≈ 9.03 µM) against Proteus vulgaris; 3.12 µg/mL (≈ 9.03 µM) with Pseudomonas aeruginosa; 3.12 µg/mL (≈ 9.03 µM) against Escherichia coli; 3.12 µg/mL (≈ 9.03 µM) against Bacillus subtilis.

Take `CCOC(=O)CSc1nc2cc(Cl)cc(Cl)c2o1`: the MIC with Staphylococcus aureus turned out to be 25 µg/mL (≈ 81.7 µM); against Proteus vulgaris, 6.25 µg/mL (≈ 20.4 µM); in the test on Pseudomonas aeruginosa, 3.12 µg/mL (≈ 10.2 µM); with Escherichia coli, 6.25 µg/mL (≈ 20.4 µM); in the test with Bacillus subtilis, 3.12 µg/mL (≈ 10.2 µM).

Regarding `S=c1[nH]nc2oc3c(Cl)cc(Cl)cc3n12`, the MIC in the test on Staphylococcus aureus came to 3.12 µg/mL (≈ 12 µM); in the test on Salmonella typhi, 50 µg/mL (≈ 192 µM); with Proteus vulgaris, 6.25 µg/mL (≈ 24 µM); in the test with Pseudomonas aeruginosa, 3.12 µg/mL (≈ 12 µM); in the test on Escherichia coli, 3.12 µg/mL (≈ 12 µM); against Bacillus subtilis, 3.12 µg/mL (≈ 12 µM).

For `Sc1nc2cc(Cl)cc(Cl)c2o1`, the MIC against Staphylococcus aureus is 25 µg/mL (≈ 114 µM); against Salmonella typhi it was 50 µg/mL (≈ 227 µM); in the test on Proteus vulgaris, 3.12 µg/mL (≈ 14.2 µM); against Pseudomonas aeruginosa, 3.12 µg/mL (≈ 14.2 µM); in the test with Escherichia coli, 3.12 µg/mL (≈ 14.2 µM); in the test with Bacillus subtilis it was 6.25 µg/mL (≈ 28.4 µM).

In the case of `O=C(O)c1cn(C2CC2)c2cc(N3CCNCC3)c(F)cc2c1=O` [CIPROFLOXACIN], the MIC against Staphylococcus aureus came out at 3.12 µg/mL (≈ 9.43 µM); in the test with Salmonella typhi, 6.25 µg/mL (≈ 18.9 µM); in the test on Proteus vulgaris, 3.12 µg/mL (≈ 9.43 µM); against Pseudomonas aeruginosa it was 3.12 µg/mL (≈ 9.43 µM); against Escherichia coli it was 3.12 µg/mL (≈ 9.43 µM); in the test with Bacillus subtilis, 3.12 µg/mL (≈ 9.43 µM).

As for `O=[N+]([O-])c1ccc(NCn2nc3oc4c(Cl)cc(Cl)cc4n3c2=S)cc1`, the MIC in the test on Staphylococcus aureus was determined as 3.12 µg/mL (≈ 7.62 µM); against Proteus vulgaris, 6.25 µg/mL (≈ 15.2 µM); in the test on Pseudomonas aeruginosa, 3.12 µg/mL (≈ 7.62 µM); against Bacillus subtilis it was 6.25 µg/mL (≈ 15.2 µM).
